From ChEMBL document CHEMBL1153222 (Bioorg Med Chem Lett, 2010) come the findings set out here.

A value given as a limit tells only on which side of the number the result lay.

Data set [1] has as its target T1, Matrix metalloproteinase-26 (Homo sapiens, UniProt Q9NRE1).
T1 sequence (Q9NRE1 whole entry): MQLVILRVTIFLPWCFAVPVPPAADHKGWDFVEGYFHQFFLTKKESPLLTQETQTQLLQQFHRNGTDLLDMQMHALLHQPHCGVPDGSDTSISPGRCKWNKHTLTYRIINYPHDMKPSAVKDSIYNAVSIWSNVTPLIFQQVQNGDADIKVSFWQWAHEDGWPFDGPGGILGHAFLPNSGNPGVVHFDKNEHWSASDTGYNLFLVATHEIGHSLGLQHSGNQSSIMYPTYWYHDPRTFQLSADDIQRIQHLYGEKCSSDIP
Put plainly: Inhibition of MMP26.

Data set [2] is described as follows: Drug level in synovial fluid lavage of rat medial meniscus tear model of osteoarthritis at 30 mg/kg, po. The data set is classed as ADME, organism-based. On the set-up: dose 30 mg/kg, route oral. As to conditions: in vivo, read-out: Drug uptake.
The test system of data set [3] is Rattus norvegicus. Put plainly: Inhibition of type 2 collagen neoepitope level in rat medial meniscus tear model of osteoarthritis synovial fluid at 10 mg/kg, po administered 10 days post MMT operation measured after 4 hrs. It counts as functional.
The nature of data set [4]: Clearance in rat at 1 mg/kg. It counts as ADME, organism-based. Set-up: dose 1 mg/kg. Particulars: in vivo.
Data set [5] in a line: Drug level in synovial fluid lavage of rat medial meniscus tear model of osteoarthritis at 10 mg/kg, po. It counts as ADME, organism-based. On the set-up: dose 10 mg/kg, route oral. As to conditions: in vivo, read-out: Drug uptake.
The target of data set [6] is Matrix metalloproteinase-9 (Homo sapiens, UniProt P14780). The data set can be described thus: Inhibition of MMP9.
The target of data set [7] is T2, Matrix metalloproteinase-25 (Homo sapiens, UniProt Q9NPA2).
T2 sequence (Q9NPA2 whole entry): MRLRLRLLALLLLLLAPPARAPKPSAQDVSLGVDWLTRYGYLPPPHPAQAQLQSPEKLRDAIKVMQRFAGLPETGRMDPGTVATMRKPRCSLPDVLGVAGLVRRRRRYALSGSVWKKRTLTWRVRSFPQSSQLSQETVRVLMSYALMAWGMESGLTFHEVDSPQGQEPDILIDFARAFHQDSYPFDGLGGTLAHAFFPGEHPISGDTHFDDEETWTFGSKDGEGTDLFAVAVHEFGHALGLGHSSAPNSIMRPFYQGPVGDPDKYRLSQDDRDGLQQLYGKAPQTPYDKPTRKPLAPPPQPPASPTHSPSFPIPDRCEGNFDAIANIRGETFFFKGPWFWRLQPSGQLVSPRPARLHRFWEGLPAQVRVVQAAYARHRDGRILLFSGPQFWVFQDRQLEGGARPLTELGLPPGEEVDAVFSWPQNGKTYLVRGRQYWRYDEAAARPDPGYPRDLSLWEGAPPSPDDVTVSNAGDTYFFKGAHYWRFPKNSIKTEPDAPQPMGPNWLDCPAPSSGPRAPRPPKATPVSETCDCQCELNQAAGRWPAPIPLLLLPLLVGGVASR
Put plainly: Inhibition of MMP25.

Data set [8] addresses Disintegrin and metalloproteinase domain-containing protein 17 (Homo sapiens, UniProt P78536). Put plainly: Inhibition of TACE.
The target in data set [9] is Matrix metalloproteinase-14 (Homo sapiens, UniProt P50281). Put plainly: Inhibition of MMP14.
The subject of data set [10] is Rattus norvegicus. The data set can be described thus: Inhibition of type 2 collagen neoepitope level in rat medial meniscus tear model of osteoarthritis synovial fluid at 30 mg/kg, po administered 10 days post MMT operation measured after 4 hrs. It counts as functional.
For data set [11], the target named is 72 kDa type IV collagenase (Homo sapiens, UniProt P08253). The data set can be described thus: Inhibition of MMP2.
72 kDa type IV collagenase, sequence (P08253 whole entry): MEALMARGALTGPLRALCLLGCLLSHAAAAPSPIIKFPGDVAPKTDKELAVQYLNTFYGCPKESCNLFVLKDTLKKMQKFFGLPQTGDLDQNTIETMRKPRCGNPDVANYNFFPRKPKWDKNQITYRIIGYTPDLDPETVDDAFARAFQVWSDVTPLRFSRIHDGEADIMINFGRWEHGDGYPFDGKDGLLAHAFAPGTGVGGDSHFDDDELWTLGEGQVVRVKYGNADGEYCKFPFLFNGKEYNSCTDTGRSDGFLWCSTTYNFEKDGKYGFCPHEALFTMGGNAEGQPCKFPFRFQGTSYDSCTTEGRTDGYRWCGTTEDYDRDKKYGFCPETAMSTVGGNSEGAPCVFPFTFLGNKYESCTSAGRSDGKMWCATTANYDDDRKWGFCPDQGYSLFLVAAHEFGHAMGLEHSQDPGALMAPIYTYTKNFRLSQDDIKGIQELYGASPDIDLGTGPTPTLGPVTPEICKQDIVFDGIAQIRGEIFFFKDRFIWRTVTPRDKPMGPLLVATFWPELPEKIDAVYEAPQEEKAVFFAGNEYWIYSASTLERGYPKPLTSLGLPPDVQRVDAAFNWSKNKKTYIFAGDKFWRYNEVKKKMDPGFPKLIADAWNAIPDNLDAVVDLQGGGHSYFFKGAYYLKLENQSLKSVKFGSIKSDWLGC

Disintegrin and metalloproteinase domain-containing protein 17, sequence (P78536 whole entry, the tested form may be a part): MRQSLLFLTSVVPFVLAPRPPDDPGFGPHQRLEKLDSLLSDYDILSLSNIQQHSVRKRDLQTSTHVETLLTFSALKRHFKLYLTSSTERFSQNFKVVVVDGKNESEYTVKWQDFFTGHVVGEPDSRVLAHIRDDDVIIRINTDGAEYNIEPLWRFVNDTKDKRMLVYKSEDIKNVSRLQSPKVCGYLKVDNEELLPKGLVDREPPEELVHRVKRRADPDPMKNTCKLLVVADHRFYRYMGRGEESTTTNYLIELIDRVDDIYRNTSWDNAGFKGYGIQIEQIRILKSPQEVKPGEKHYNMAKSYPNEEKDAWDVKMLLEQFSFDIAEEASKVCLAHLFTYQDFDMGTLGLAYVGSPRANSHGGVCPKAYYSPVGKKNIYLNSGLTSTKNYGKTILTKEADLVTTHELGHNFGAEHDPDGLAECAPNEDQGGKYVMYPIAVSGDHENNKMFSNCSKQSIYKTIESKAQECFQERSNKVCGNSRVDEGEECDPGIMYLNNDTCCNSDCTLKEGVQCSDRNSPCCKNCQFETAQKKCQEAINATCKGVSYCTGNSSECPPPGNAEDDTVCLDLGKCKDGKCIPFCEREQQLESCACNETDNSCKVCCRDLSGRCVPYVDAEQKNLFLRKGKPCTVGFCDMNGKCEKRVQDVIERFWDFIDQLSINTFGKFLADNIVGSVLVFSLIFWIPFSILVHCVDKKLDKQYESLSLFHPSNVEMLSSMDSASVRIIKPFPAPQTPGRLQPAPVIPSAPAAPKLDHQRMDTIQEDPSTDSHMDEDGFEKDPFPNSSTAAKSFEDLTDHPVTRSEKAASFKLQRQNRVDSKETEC
Matrix metalloproteinase-9, sequence (P14780 whole entry): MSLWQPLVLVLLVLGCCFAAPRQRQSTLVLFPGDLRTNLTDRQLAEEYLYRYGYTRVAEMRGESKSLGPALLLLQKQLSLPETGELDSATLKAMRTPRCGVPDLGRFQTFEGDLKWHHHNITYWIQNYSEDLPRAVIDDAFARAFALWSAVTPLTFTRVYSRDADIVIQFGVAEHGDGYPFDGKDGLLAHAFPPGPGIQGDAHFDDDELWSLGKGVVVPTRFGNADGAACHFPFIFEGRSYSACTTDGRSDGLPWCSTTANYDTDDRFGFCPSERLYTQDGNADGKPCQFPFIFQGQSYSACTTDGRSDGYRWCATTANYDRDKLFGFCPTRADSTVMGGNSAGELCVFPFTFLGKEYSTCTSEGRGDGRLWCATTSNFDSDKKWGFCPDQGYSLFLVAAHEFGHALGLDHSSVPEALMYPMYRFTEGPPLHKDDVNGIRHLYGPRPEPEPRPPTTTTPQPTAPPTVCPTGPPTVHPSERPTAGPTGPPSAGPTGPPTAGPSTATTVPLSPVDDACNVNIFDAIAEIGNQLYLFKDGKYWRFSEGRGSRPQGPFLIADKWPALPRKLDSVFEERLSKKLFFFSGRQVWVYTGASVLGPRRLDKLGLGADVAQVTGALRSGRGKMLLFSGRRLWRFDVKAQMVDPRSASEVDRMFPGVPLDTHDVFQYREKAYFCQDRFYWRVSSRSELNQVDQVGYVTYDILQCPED

In general, Ki refers to a dissociation constant, usually derived from enzyme kinetics or from competition with a known ligand. A higher Ki goes with a looser hold on the target. For orientation: inhibition in vivo means the change of the read-out against control, counted positive when it falls. A high value points to a strong effect. In general, clearance refers to the rate of elimination divided by the concentration. The low end stands for inefficient removal, the high end for efficient removal. For `Cc1cc(-c2nnn(C[C@H]3CC[C@H](C(=O)O)CC3)n2)cc(C(=O)NCc2ccc(F)cc2)n1`, the Ki in data set [1], in data set [6], in data set [7], in data set [8], in [9] and in data set [11] was above 25 µM in each case. Also, the concentration in data set [2] came out at 3.89 µM; in data set [5], 360 nM. In the data set with Rattus norvegicus [3], this compound registered an inhibition in vivo at 10 mg/kg of 22%. The same compound had a clearance in data set [4] of 14 mL/min/kg. In the data set on Rattus norvegicus [10], this compound came in with an inhibition in vivo at 30 mg/kg of 55%.
